Source: patent US9381208B2, “Structure and use of 5′ phosphate oligonucleotides” (Rheinische Friedrich-Wilhelms-Universität, priority 2006, dated 2016)
{ppp} = triphosphate group

System: human primary monocytes
Test: IFN-α production in human primary monocytes transfected with RNA (ELISA)
Type: cell-based
Conditions: for IFN-α-inducing activity conferred by the 5′ 4-nucleotide sequence: adenosine-initiated in vitro transcribed RNA oligonucleotides, FIG. 13; for IFN-α induction (*100%) mean: monocytes from three donors, 36 hours after transfection, normalized to the mean induction level of all oligonucleotides (=100%); for IFN-α production in monocytes: 200 ng RNA transfected, ELISA

| Substance | IFN-α-inducing activity conferred by the 5′ 4-nucleotide sequence | IFN-α induction (*100%) mean | other results |
| --- | --- | --- | --- |
| acggggggac acacacacac acacacacac (ACGGGGGGACACACACACACACACACACAC; RNA, 5' {ppp}, backbone not given here) [SEQ ID No. 145] | highest IFN-α-inducing activity | 1.03 *100% |  |
| aacuggggac acacacacac acacacacac (AACUGGGGACACACACACACACACACACAC; RNA, 5' {ppp}, backbone not given here) [SEQ ID No. 163] | highest IFN-α-inducing activity | 1.29 *100% |  |
| accgggggac acacacacac acacacacac (ACCGGGGGACACACACACACACACACACAC; RNA, 5' {ppp}, backbone not given here) [SEQ ID No. 122] |  | 0.73 *100% |  |
| acauggggac acacacacac acacacacac (ACAUGGGGACACACACACACACACACACAC; RNA, 5' {ppp}, backbone not given here) [SEQ ID No. 148] | highest IFN-α-inducing activity | 1.11 *100% |  |
| acucggggac acacacacac acacacacac (ACUCGGGGACACACACACACACACACACAC; RNA, 5' {ppp}, backbone not given here) [SEQ ID No. 137] |  | 0.98 *100% |  |
| acgaggggac acacacacac acacacacac (ACGAGGGGACACACACACACACACACACAC; RNA, 5' {ppp}, backbone not given here) [SEQ ID No. 151] | highest IFN-α-inducing activity | 1.14 *100% |  |
| agcaggggac acacacacac acacacacac (AGCAGGGGACACACACACACACACACACAC; RNA, 5' {ppp}, backbone not given here) [SEQ ID No. 164] | highest IFN-α-inducing activity | 1.29 *100% |  |
| agauggggac acacacacac acacacacac (AGAUGGGGACACACACACACACACACACAC; RNA, 5' {ppp}, backbone not given here) [SEQ ID No. 113] |  | 0.48 *100% |  |
| Lipopolysaccharide [LPS, reference compound] |  |  | IFN-α production in monocytes (24 hours): did not contribute to IFN-α production |
| auccggggac acacacacac acacacacac (AUCCGGGGACACACACACACACACACACAC; RNA, 5' {ppp}, backbone not given here) [SEQ ID No. 141] | highest IFN-α-inducing activity | 1.01 *100% |  |
| 5′-pppAACCUGUCCUUCAAUUACC-3′ [RNA9.2s-5A] |  |  | IFN-α production in monocytes (24 hours): paralleled RNA9.2-0A |
| acgcggggac acacacacac acacacacac (ACGCGGGGACACACACACACACACACACAC; RNA, 5' {ppp}, backbone not given here) [SEQ ID No. 147] | highest IFN-α-inducing activity | 1.08 *100% |  |
| accuggggac acacacacac acacacacac (ACCUGGGGACACACACACACACACACACAC; RNA, 5' {ppp}, backbone not given here) [SEQ ID No. 124] |  | 0.76 *100% |  |
| aaauggggac acacacacac acacacacac (AAAUGGGGACACACACACACACACACACAC; RNA, 5' {ppp}, backbone not given here) [SEQ ID No. 146] | highest IFN-α-inducing activity | 1.04 *100% |  |
| acaaggggac acacacacac acacacacac (ACAAGGGGACACACACACACACACACACAC; RNA, 5' {ppp}, backbone not given here) [SEQ ID No. 142] | highest IFN-α-inducing activity | 1.01 *100% |  |
| agcgggggac acacacacac acacacacac (AGCGGGGGACACACACACACACACACACAC; RNA, 5' {ppp}, backbone not given here) [SEQ ID No. 115] |  | 0.52 *100% |  |
| augaggggac acacacacac acacacacac (AUGAGGGGACACACACACACACACACACAC; RNA, 5' {ppp}, backbone not given here) [SEQ ID No. 169] | highest IFN-α-inducing activity | 1.32 *100% |  |
| aagcggggac acacacacac acacacacac (AAGCGGGGACACACACACACACACACACAC; RNA, 5' {ppp}, backbone not given here) [SEQ ID No. 157] | highest IFN-α-inducing activity | 1.22 *100% |  |
| acacggggac acacacacac acacacacac (ACACGGGGACACACACACACACACACACAC; RNA, 5' {ppp}, backbone not given here) [SEQ ID No. 135] |  | 0.95 *100% |  |

| Substance | IFN-α-inducing activity conferred by the 5′ 4-nucleotide sequence | IFN-α induction (*100%) mean | other results |
| --- | --- | --- | --- |
| 5′-PPPGGGAGACAGGAAAAAAAAAAAAAAAAAAAAA-3′ [tri-poly A] |  |  | IFN-α production in monocytes (24 hours): equally potent |
| acuuggggac acacacacac acacacacac (ACUUGGGGACACACACACACACACACACAC; RNA, 5' {ppp}, backbone not given here) [SEQ ID No. 118] |  | 0.66 *100% |  |
| aauaggggac acacacacac acacacacac (AAUAGGGGACACACACACACACACACACAC; RNA, 5' {ppp}, backbone not given here) [SEQ ID No. 112] |  | 0.40 *100% |  |
| aucaggggac acacacacac acacacacac (AUCAGGGGACACACACACACACACACACAC; RNA, 5' {ppp}, backbone not given here) [SEQ ID No. 160] | highest IFN-α-inducing activity | 1.24 *100% |  |
| agcuggggac acacacacac acacacacac (AGCUGGGGACACACACACACACACACACAC; RNA, 5' {ppp}, backbone not given here) [SEQ ID No. 120] |  | 0.69 *100% |  |
| aaguggggac acacacacac acacacacac (AAGUGGGGACACACACACACACACACACAC; RNA, 5' {ppp}, backbone not given here) [SEQ ID No. 174] | highest IFN-α-inducing activity | 1.40 *100% |  |
| accaggggac acacacacac acacacacac (ACCAGGGGACACACACACACACACACACAC; RNA, 5' {ppp}, backbone not given here) [SEQ ID No. 126] |  | 0.79 *100% |  |
| 5′-pppAGGGAAGCGGGCAUGCGGCCAGCCAUAGCCGAUCA-3′ [AΦ6.5-35 n] |  |  | IFN-α production in monocytes (24 hours): clear superiority |
| aauuggggac acacacacac acacacacac (AAUUGGGGACACACACACACACACACACAC; RNA, 5' {ppp}, backbone not given here) [SEQ ID No. 119] |  | 0.67 *100% |  |
| 5′-pppGCUUAACCUGUCCUUCAAU-3′ [RNA9.2s-1G] |  |  | reduction in IFN-α induction compared with RNA9.2s-0A (monocytes, 200 ng, 24 hours): approximately 25% |
| auagggggac acacacacac acacacacac (AUAGGGGGACACACACACACACACACACAC; RNA, 5' {ppp}, backbone not given here) [SEQ ID No. 123] |  | 0.76 *100% |  |
| agagggggac acacacacac acacacacac (AGAGGGGGACACACACACACACACACACAC; RNA, 5' {ppp}, backbone not given here) [SEQ ID No. 114] |  | 0.50 *100% |  |
| auuuggggac acacacacac acacacacac (AUUUGGGGACACACACACACACACACACAC; RNA, 5' {ppp}, backbone not given here) [SEQ ID No. 138] |  | 0.99 *100% |  |
| agggggggac acacacacac acacacacac (AGGGGGGGACACACACACACACACACACAC; RNA, 5' {ppp}, backbone not given here) [SEQ ID No. 111] |  | 0.22 *100% |  |
| acagggggac acacacacac acacacacac (ACAGGGGGACACACACACACACACACACAC; RNA, 5' {ppp}, backbone not given here) [SEQ ID No. 150] | highest IFN-α-inducing activity | 1.12 *100% |  |
| aguaggggac acacacacac acacacacac (AGUAGGGGACACACACACACACACACACAC; RNA, 5' {ppp}, backbone not given here) [SEQ ID No. 158] | highest IFN-α-inducing activity | 1.22 *100% |  |
| agguggggac acacacacac acacacacac (AGGUGGGGACACACACACACACACACACAC; RNA, 5' {ppp}, backbone not given here) [SEQ ID No. 155] | highest IFN-α-inducing activity | 1.18 *100% |  |
| 5′-pppGGGGCUGACCCUGAAGUUCAUCUUCCC-3′ [27-mer] |  |  | IFN-α induction level (24 hours after stimulation, five donors, mean±SEM): 5876 ± 1785 pg/mL |
